Results on 13 compounds are retold here after PubChem BioAssay (NCI).

Structures are written as SMILES.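 How tested: cells in 96-well plates exposed to compound for 48 hours at five concentrations. The concentration for full growth arrest is given as TGI.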

Assay in all cases: NCI tumour cell line growth inhibition, 48 h
For assay [1], the system named is A549 NSCLC.
The subject of assay [2] is ACHN renal.
Assay [3] has as its system CCRF-CEM leukemia.
Assay [4] has as its system HOP-62 NSCLC.
For assay [5], the system named is K-562 leukemia.
Assay [6] relates to MALME-3M melanoma.
Assay [7] has as its system MDA-MB-435.
Assay [8] deals with PC-3 prostate.
The test system of assay [9] is RXF 393 renal.
The test system of assay [10] is SR leukemia.
The test system of assay [11] is T-47D breast.
In assay [12] the test system is U251 CNS.
In assay [13] the test system is UACC-257 melanoma.
Assay [14] has as its system MCF7 breast.

As to `COc1ccc(C=Nc2ccc(-c3nc4ccccc4s3)cc2)cc1OC`, the TGI in assay [1] is above 100 µM; in assay [2], 70.5 µM; in assay [3] it was 55 µM; in assay [4], 39.2 µM; in assay [5], above 100 µM; in assay [6], 89.2 µM. For the same compound, the TGI in [7] is above 100 µM; in [8], 69.9 µM; in assay [9] it was 62.4 µM; in assay [10] it was above 100 µM; in assay [11], 81.2 µM; in assay [12], above 100 µM. This compound also came in with a TGI in assay [13] of 61 µM.

With `Nc1cn(C2OC(CC(c3ccccc3)(c3ccccc3)c3ccccc3)C(O)C2O)c(=O)[nH]c1=O` (stereo not drawn), the TGI in assay [1] is 83.1 µM; in [2], above 100 µM; in assay [3], 63.1 µM; in [4], 63.1 µM; in assay [5], 54.4 µM; in assay [6] it was 55.7 µM. For the same compound, the TGI in [9] stood at 21.4 µM; in assay [10] it was 39.9 µM; in assay [12], 32.1 µM; in assay [13], 52.3 µM.

For the compound `CC(=O)Nc1ccc(-c2nnc(SCC(=O)Nc3cccc(C)c3)o2)cc1`, the TGI in assay [1] was 68.6 µM; in assay [2], 22.5 µM; in assay [3], above 100 µM; in assay [4], 73.2 µM; in [5], above 100 µM; in assay [6], 27.2 µM. The TGI is 25.9 µM in assay [9], above 100 µM in assay [10], 26.3 µM in assay [12] and 24.9 µM in [13].

Turning to `O=C(O)c1cc2ccccc2c(Cc2c(O)c(C(=O)O)cc3ccccc23)c1O`, the TGI in assay [1], in assay [2], in assay [3], in assay [4], in assay [5] and in assay [6] was above 100 µM each time. For the same compound, the TGI in [7], in assay [8], in assay [9], in [10], in [11] and in assay [12] was above 100 µM in each case. Besides, in assay [13], the TGI is above 100 µM.

Take `O=C1NC(=O)C(C(=O)C(=O)Nc2cc(Cl)ccc2Cl)C(=O)N1`: the TGI in assay [1], in [2], in [3], in assay [4], in assay [5] and in assay [6] was above 100 µM each time. Moreover, the TGI in assay [9], in assay [12] and in assay [13] was above 100 µM throughout.

Take `CC(C)OP(=O)(OC(C)C)C(=NCCO)NNc1ccc([N+](=O)[O-])cc1`: the TGI in assay [1], in assay [2], in assay [3], in [4], in assay [5] and in [6] was above 100 µM each time. Moreover, the TGI in [10], in [12] and in assay [13] was above 100 µM throughout.

Take `O=c1oc2cc(O)ccc2c2[nH]c3cc(O)ccc3c12`: the TGI in assay [1] is above 100 µM; in assay [2], 62.5 µM; in assay [3] it was above 100 µM; in assay [4], 59.6 µM; in assay [5], above 100 µM; in assay [6], above 100 µM. Also, the TGI in assay [9] was 47.5 µM; in assay [10], above 100 µM; in [12], above 100 µM; in [13] it was above 100 µM.

As to `C[N+]1=C(c2cccnc2/C=N/O)OCC1(C)C`, the TGI in [1], in assay [2], in assay [3], in assay [4], in [5] and in [6] was above 100 µM each time. Also, the TGI in assay [9], in [10], in [12] and in assay [13] was above 100 µM in each case.

Consider `COc1cc(C2CC(C)(N3CCOCC3)Oc3cc4c(cc32)OCO4)cc(OC)c1OC` (stereo not drawn), for which the TGI in assay [1], in assay [2], in [4], in [5], in assay [6] and in assay [14] was above 100 µM in each case. Besides, the TGI in assay [7], in assay [8], in assay [10], in assay [12] and in [13] was above 100 µM each time.

Take `CCOC(=O)/C=C/n1c2ccccc2c(=O)c2cc(OC)ccc21`: the TGI in assay [1], in assay [2], in [3], in assay [4], in assay [5] and in assay [6] was above 100 µM in each case. For the same compound, the TGI in assay [9], in [10], in [12] and in [13] was above 100 µM in each case.

Turning to `[N-]=[N+]=CC(=O)C1(C(=O)C=[N+]=[N-])CC1`, the TGI in [1], in assay [2], in assay [3], in assay [4], in assay [5] and in [6] was above 100 µM in each case. The TGI in [9], in [10], in assay [12] and in [13] was above 100 µM each time.

With `Cc1ccc(S(=O)(=O)NC(=O)C2S(=O)(=O)OCCOS2(=O)=O)cc1`, the TGI in assay [1], in [3], in assay [4], in [5], in assay [6] and in assay [10] was above 100 µM each time. Further, the TGI in assay [13] is above 100 µM.

On to `Cc1ccc(S(=O)(=O)NC(=O)Nc2c(S(N)(=O)=O)cc(S(N)(=O)=O)c(Cl)c2Cl)cc1`, for which the TGI in assay [1], in [2], in assay [3], in assay [5], in [6] and in assay [14] was above 100 µM throughout. Also, the TGI in assay [7], in assay [8], in assay [10], in assay [12] and in assay [13] was above 100 µM each time.
